US20090191193A1, “Aryl Vinyl Sulfides, Sulfones, Sulfoxides and Sulfonamides, Derivatives Thereof and Therapeutic Uses Thereof” (TEMPLE UNIVERSITY-OF THE COMMONWEALTH SYSTEM OF HIGHER …, priority 2006, published 2009)

Legend:
[1] = system: K562 (chronic myelogenous leukaemia); test: Effect on tumor cell lines, viable cell count by trypan blue exclusion (Latham et al.): K562; type: cell-based; conditions: K562 chronic myelogenous leukaemia cells, viable cell count 96 hours after treatment
DU145 (prostate cancer) = test: Effect on tumor cell lines, viable cell count by trypan blue exclusion (Latham et al.): DU145; type: cell-based; conditions: DU145 prostate cancer cells, viable cell count 96 hours after treatment

Row | Compound | IC50 ([1]; Homo sapiens, K562, 96 h) [µM] | IC50 (DU145 (prostate cancer); Homo sapiens, DU-145, 96 h) [µM] | melting point [°C] | IC50 [1] [µM] | IC50 (DU145 (prostate cancer)) [µM]
1 | COc1ccc(/C=C(\C#N)S(=O)(=O)Cc2ccc(Cl)cc2Cl)c(OC)c1 [Example 111] | > 100 | > 100 | 165 to 170 | – | –
2 | N#C/C(=C\c1ccc(C#N)cc1F)S(=O)(=O)Cc1ccc(Br)cc1 [Example 16] | 10 | 75 | 202 to 204 | – | –
3 | Cc1ccc(C)c(/C=C(\C#N)S(=O)(=O)Cc2ccc(Cl)cc2)c1 [Example 40] | 1 to 10 | 25 to 50 | 123 to 126 | – | –
4 | COc1ccc(NS(=O)(=O)/C(C#N)=C/c2ccc(O)cc2)cc1 [Example 289] | 50 to 100 | > 100 | 181 to 182 | – | –
5 | COc1ccc(NS(=O)(=O)/C(C#N)=C/c2c(F)c(F)c(F)c(F)c2F)cc1OS(=O)(=O)c1ccc(C)cc1 [Example 194, (E)-2-[(4-methoxy-3-(4-methylphenylsulfonyloxy)phenyl)sulfamoyl]-3-(2,3,4,5,6-pentafluorophenyl)acrylonitrile] | 1 to 10 | 1 to 10 | 112 to 114 | – | –
6 | Cc1ccc(NS(=O)(=O)/C(C#N)=C/c2c[nH]c3ccc(Br)cc23)c(C)c1 [Example 269] | 1 to 10 | 1 to 10 | 231 to 235 | – | –
7 | Cc1ccc(/C=C(\C#N)S(=O)(=O)Nc2ccc(F)cc2)s1 [Example 246] | > 100 | > 100 | 133 to 134 | – | –
8 | COc1ccc(/C=C(\C#N)S(=O)(=O)Cc2ccc(Cl)cc2Cl)cc1OC [Example 110] | 25 to 50 | 50 to 100 | 149 to 153 | – | –
9 | CN(C)c1ccc(/C=C(\C#N)S(=O)(=O)Nc2ccc(F)cc2)cc1 [Example 233] | 50 to 100 | > 100 | 179 to 180 | – | –
10 | COc1ccc(NS(=O)(=O)/C(C#N)=C/c2ccccc2OC)cc1 [Example 204] | 50 to 100 | > 100 | 133 to 135 | – | –
11 | N#C/C(=C\c1ccc([N+](=O)[O-])cc1F)S(=O)(=O)Cc1ccc(Cl)cc1 [Example 48] | 1 to 10 | 1 to 10 | 243 to 253 | – | –
12 | COc1ccc(NS(=O)(=O)/C(C#N)=C/c2ccc(N(C)C)cc2)cc1 [Example 280] | 50 to 100 | > 100 | 166 to 169 | – | –
13 | COc1ccc(/C=C(\C#N)S(=O)(=O)Cc2ccc(Cl)cc2Cl)c(OC)c1OC [Example 93] | 25 to 50 | 25 to 50 | 150 to 165 | – | –
14 | N#C/C(=C\c1ccccc1Cl)S(=O)(=O)Cc1ccc(F)cc1 [Example 145] | > 100 | > 100 | 159 to 163 | – | –
15 | COc1ccc(OC)c(/C=C(\C#N)S(=O)(=O)Cc2ccccc2)c1 [Example 135] | > 100 | > 100 | 140 to 143 | – | –
16 | COc1ccc(/C=C(\C#N)S(=O)(=O)Cc2ccc(Cl)cc2)c(OC)c1OC [Example 46] | > 100 | > 100 | 120 to 128 | – | –
17 | N#C/C(=C\c1c[nH]c2ccc(Br)cc12)S(=O)(=O)Cc1ccc(Cl)cc1Cl [Example 71] | 50 to 100 | 50 to 100 | 264 to 275 | – | –
18 | N#C/C(=C\c1ccc(O)c([N+](=O)[O-])c1)S(=O)(=O)Nc1ccc(Br)cc1 [Example 223] | > 100 | > 100 | > 250 | – | –
19 | COc1cc(OC)c(OC)cc1/C=C(\C#N)S(=O)(=O)Nc1ccc(F)cc1 [Example 237] | > 100 | > 100 | 184 to 186 | – | –
20 | Cc1ccc(C)c(/C=C(\C#N)S(=O)(=O)Nc2ccc(Br)cc2)c1 [Example 229] | 25 to 50 | 50 to 100 | 172 to 174 | – | –
21 | COc1ccc(/C=C(\C#N)S(=O)(=O)Cc2ccc(Cl)cc2)c(F)c1 [Example 49] | 50 to 100 | > 100 | 145 to 155 | – | –
22 | COc1ccccc1/C=C(\C#N)S(=O)(=O)Nc1ccc(F)cc1 [Example 247] | > 100 | > 100 | 152 to 154 | – | –
23 | N#C/C(=C\c1c[nH]c2ccc(Cl)cc12)S(=O)(=O)Cc1ccc(Cl)cc1Cl [Example 91] | – | – | 150 to 161 | 10 to 25 | 10 to 25
24 | COc1ccc(NS(=O)(=O)/C(C#N)=C/c2ccc(Cl)cc2)cc1 [Example 290] | 25 to 50 | 50 to 100 | 95 to 96 | – | –
25 | N#C/C(=C\c1c[nH]c2ccccc12)S(=O)(=O)Cc1ccc(F)cc1 [Example 81] | 50 to 100 | 50 to 100 | 140 to 152 | – | –
26 | Cc1cc(C)cc(/C=C(\C#N)S(=O)(=O)Cc2ccc(Br)cc2)c1 [Example 101] | 50 to 100 | > 100 | 169 to 172 | – | –
27 | COc1ccc(NS(=O)(=O)/C(C#N)=C/c2ccc(Cl)c(Cl)c2)cc1 [Example 288] | 25 to 50 | 50 to 100 | 84 to 86 | – | –

Row | Compound | IC50 ([1]; Homo sapiens, K562, 96 h) [µM] | IC50 (DU145 (prostate cancer); Homo sapiens, DU-145, 96 h) [µM] | melting point [°C] | IC50 [1] [µM] | IC50 (DU145 (prostate cancer)) [µM]
28 | Cc1ccc(NS(=O)(=O)/C(C#N)=C/c2sccc2C)c(C)c1 [Example 257] | 10 to 25 | 50 to 100 | 166 to 168 | – | –
29 | N#C/C(=C\c1ccccc1O)S(=O)(=O)Cc1ccc(Cl)cc1Cl [Example 108] | > 100 | > 100 | 219 to 223 | – | –
30 | N#C/C(=C\c1ccccc1Cl)S(=O)(=O)Cc1ccccc1 [Example 130] | > 100 | > 100 | 155 to 160 | – | –
31 | COc1ccc(CS(=O)(=O)/C(C#N)=C/c2ccc(OC)c(OC)c2)cc1 [Example 148] | 25 to 50 | 50 to 100 | 155 to 160 | – | –
32 | COc1ccc(CS(=O)(=O)/C(C#N)=C/c2c(F)c(F)c(F)c(F)c2F)cc1[N+](=O)[O-] [Example 35] | 1 | 25 | 144 to 146 | – | –
33 | CC(=O)Oc1ccc(/C=C(\C#N)S(=O)(=O)Cc2ccc(F)cc2)cc1 [Example 84] | 1 to 10 | 1 to 10 | 116 to 125 | – | –
34 | COc1ccc(/C=C(\C#N)S(=O)(=O)Cc2ccc(Cl)cc2)cc1 [Example 50] | > 100 | > 100 | 143 to 152 | – | –
35 | N#C/C(=C\c1ccc(O)c([N+](=O)[O-])c1)S(=O)(=O)Cc1ccc(Cl)cc1Cl [Example 109] | > 100 | > 100 | 169 to 171 | – | –
36 | N#C/C(=C\c1ccc(F)cc1F)S(=O)(=O)Cc1ccccc1 [Example 142] | > 100 | > 100 | 133 to 135 | – | –
37 | N#C/C(=C\c1ccc(Cl)cc1)S(=O)(=O)Nc1ccc(F)cc1 [Example 248] | 50 to 100 | > 100 | 108 to 110 | – | –
38 | COc1cc(OC)c(/C=C(\C#N)S(=O)(=O)Cc2ccc(F)cc2)c(OC)c1 [Example 79] | 50 to 100 | > 100 | 182 to 192 | – | –
39 | N#C/C(=C\c1cccc(O)c1)S(=O)(=O)Cc1cccc(Br)c1 [Example 117] | > 100 | > 100 | 160 to 165 | – | –
40 | COc1ccc(NS(=O)(=O)/C(C#N)=C/c2c(OC)cc(OC)cc2OC)cc1 [Example 279] | – | – | 151 to 154 | 10 to 25 | 25 to 50
41 | COc1ccc(/C=C(\C#N)S(=O)(=O)Nc2ccc(F)cc2)c(F)c1 [Example 241] | 50 to 100 | > 100 | 142 to 144 | – | –
42 | Cc1ccc(NS(=O)(=O)/C(C#N)=C/c2cc(C)ccc2C)c(C)c1 [Example 259] | 50 to 100 | > 100 | 139 to 141 | – | –
43 | N#C/C(=C\c1ccc(F)cc1F)S(=O)(=O)Nc1ccc(Br)cc1 [Example 226] | 25 to 50 | 25 to 50 | 165 to 166 | – | –
44 | COc1ccc(NS(=O)(=O)/C(C#N)=C/c2ccc(F)cc2)cc1 [Example 200] | 50 to 100 | > 100 | 107 to 109 | – | –
45 | Cc1ccc(NS(=O)(=O)/C(C#N)=C/c2ccccc2OCc2ccccc2)c(C)c1 [Example 252] | 10 to 25 | 25 to 50 | 177 to 179 | – | –
46 | CCOc1cc(/C=C(\C#N)S(=O)(=O)Nc2ccc(C)cc2C)ccc1O [Example 275] | 50 to 100 | > 100 | 146 to 148 | – | –
47 | N#C/C(=C\c1ccc(F)cc1Cl)S(=O)(=O)Cc1ccc(Cl)cc1Cl [Example 95] | 50 to 100 | 50 to 100 | 142 to 148 | – | –
48 | COc1ccccc1/C=C(\C#N)S(=O)(=O)Nc1ccc(Br)cc1 [Example 225] | 50 to 100 | 50 to 100 | 187 to 189 | – | –
49 | N#C/C(=C\c1ccc(Cl)c(Cl)c1)S(=O)(=O)Cc1ccc(Cl)cc1 [Example 52] | 10 to 25 | 25 to 50 | 145 to 155 | – | –
50 | N#C/C(=C\c1ccc(F)cc1F)S(=O)(=O)Nc1ccc(F)cc1 [Example 240] | 50 to 100 | 50 to 100 | 135 to 139 | – | –
51 | N#C/C(=C\c1c(F)c(F)c(F)c(F)c1F)S(=O)(=O)Nc1ccc(Br)cc1 [Example 221] | < 1 | 1 to 10 | 174 to 176 | – | –
52 | CCOc1ccc(/C=C(\C#N)S(=O)(=O)Cc2ccc(Cl)cc2Cl)cc1OC [Example 94] | 25 to 50 | 50 to 100 | 126 to 131 | – | –
53 | COc1ccc(NS(=O)(=O)/C(C#N)=C/c2cc(C)ccc2C)cc1 [Example 282] | 50 to 100 | 50 to 100 | 125 to 127 | – | –
54 | COc1ccc(CS(=O)(=O)/C(C#N)=C/c2cc(OC)cc(OC)c2)cc1 [Example 149] | 50 to 100 | > 100 | 135 to 140 | – | –
